Results on three compounds are retold here after PMC5933457, “Probing biological activity through structural modelling of ligand-receptor interactions of 2,4-disubstituted thiazole retinoids” (Bioorganic & Medicinal Chemistry, 2018).

Molecules are shown by their SMILES. Where two headings read alike, the source gives them in different places.

In test [1] the target is T1, RARα ligand-binding domain (GST-RAR-α-LBD) (Homo sapiens, UniProt P10276).
T1 construct: purchased Invitrogen
T1 sequence (P10276 183-417 limits assumed): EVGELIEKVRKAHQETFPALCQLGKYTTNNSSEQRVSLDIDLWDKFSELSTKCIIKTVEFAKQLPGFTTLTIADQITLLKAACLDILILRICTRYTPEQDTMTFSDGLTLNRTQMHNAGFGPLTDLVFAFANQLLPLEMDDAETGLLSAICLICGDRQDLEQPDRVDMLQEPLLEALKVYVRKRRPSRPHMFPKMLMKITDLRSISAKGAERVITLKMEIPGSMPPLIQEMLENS
In words: LanthaScreen TR-FRET RARα co-activator (receptor binding) assay. The class given is biochemical. As to conditions: for EC50: read-out: EC50 (95% confidence range) RARα; for binding-curve upper asymptote (coactivator recruitment), RARα: in words, Fig. 6A. As for the experimental part: (§1) These predictions were tested through a receptor-binding assay for each RAR isotype (Fig. 6), where the assay signal is dependent on two parameters: the binding affinity of ligand to the RAR LBD, and the affinity of the coactivator for the ligand-LBD complex. For this assay, binding curves and variation in level of the upper asymptote can reflect differences in co-activator affinity for the ligand-LBD complex; variation in affinity of ligand for LBD shifts the midpoint (EC50) of the binding curve, whereas changes in the level of the upper asymptote may result from changes in coactivator affinity for the ligand-LBD complex alone, or in combination with changes in affinity for ligand with LBD.[23]
(§2) The binding interaction of each retinoid with RARα, β and γ were determined in vitro by time-resolved fluorescence resonance energy transfer (TR-FRET) using the LanthaScreen TR-FRET RARα, RARβ, and RARγ co-activator assays according to the manufacturer’s (Invitrogen™) instructions.[23] This uses a terbium-labeled anti-GST antibody, a fluorescein-labeled co activator peptide, and RARα/β/γ ligand-binding domains (LBD) that are tagged with glutathione-S-transferase (GST) in a homogenous assay format. All experiments were performed in black, 384-well low-volume plates in the dark at RT with a 4 h incubation time. The final assay volume was 20 μL and all dilutions were carried out using TR-FRET assay buffer, with a final DMSO concentration of 1%. A mixture of either 3.5 nM GST-RAR-α-LBD or 2.5 nM GST-RAR-β-LBD or 3 nM GST-RAR-γ-LBD with 62.5 nM Tb-anti GST antibody and 30 μM fluorescein-labeled peptide and retinoid or DMSO control was added to each of the wells. Each ligand assay was performed in duplicate and measured using a PHERAstar FS Microplate Reader (BMG Labtech, Ortenberg, Germany) with instrument settings as described in the manufacturer’s instructions for LanthaScreen assays. The TR-FRET signal was expressed as the ratio of the signals at 520 nm and 490 nm. The data were fitted to a three-parameter ligand-binding curve using SigmaPlot (version 12.5, Systat Software Inc., San Jose CA) and normalized to the lower asymptote of each binding curve. […] Since the assay involves interactions between ligand and LBD, and ligand-dependent interactions between the LBD and fluorescein-labeled co activator, the binding assay data were interpreted by simulating these coupled chemical reactions using the biochemical simulator COPASI version 4.3.[23], [54]
(§3) The readout of the Lanthascreen TR-FRET binding assay is based on a Forster resonance energy transfer (FRET) signal generated from the interaction between a terbium-labelled anti-glutathione-S-transferase (GST) antibody and a fluorescein-labelled coactivator peptide. The RAR ligand-binding domain (LBD) is a GST fusion protein and interaction between the LBD and the fluorescein-labelled coactivator peptide is driven by the binding of ligand to the LBD, and detected by the FRET signal from the terbium/fluorescein interaction when the terbium-labelled anti-GST binds the LBD fusion protein. The output of the assay thus relies on two binding interactions: ligand with LBD, and ligand-bound LBD with the coactivator peptide. As both interactions may be affected by the fit of ligand to the binding pocket of the LBD, we used the biochemical pathway simulator COPASI^1 to build a simple model of how the FRET signal output in the assay will vary according to differential changes in the kinetics of the two binding interactions. Reactions were modelled deterministically using mass-action kinetics described by ordinary differential equations (ODE) within COPASI.^1 This model enables us to assess the effect of different rate constants and varying ligand concentration on the formation of the final ternary complex that is the read-out from the Lanthascreen TR-FRET assay.
In general terms: In TR-FRET formats the signal depends on donor and acceptor labels being close together.

Test [2] deals with TERA2.cl.SP12 embryonal carcinoma stem cells. In words: Flow cytometry of cell-surface differentiation markers SSEA-3, TRA-1–60, A2B5. The class given is cell-based, human. The note with it: 10 μM retinoid, 7 days, compared to ATRA and control cultures, Fig. 7A. From the text:
First, we examined neuronal differentiation in pluripotent TERA2.cl.SP12 human embryonal carcinoma stem cells in response to retinoid treatment. TERA2.cl.SP12 cells have been used in previous studies, [29] to test the ability of synthetic retinoids to induce differentiation along a neuronal or an alternative epithelial pathway at long in vitro timescales of up to three weeks. […] Since the parent carboxylic acid (GZ24) had little activity, the response to GZ22 was a real effect of the ester rather than a result of hydrolysis of the parent ester to the carboxylic acid.
The expression of specific cell surface protein markers (SSEA-3, TRA-1–60, A2B5) on TERA2.cl.SP12 was analyzed using flow cytometry as described previously.[53] Briefly, TERA2.cl.SP12 cells, 2 × 10^5 per 25 cm^2 flask, were seeded 12–24 h before treatment with 10 μM retinoid for 7 days. The primary antibodies used were SSEA-3 (diluted 1:10, University of Iowa Hybridoma Bank), TRA-1–60 (diluted 1:50, Abcam) and neural cell marker A2B5 (diluted 1:40, R&D Systems). Labeled cells were analyzed in a Guave EasyCyte Plus System (Millipore) flow cytometer and thresholds determining the numbers of positively expressing cells were set against the negative control antibody, P3X.
Background: Flow cytometry measures light scatter and fluorescence of single cells or particles in a stream.

The target in test [3] is T2, RARγ ligand-binding domain (GST-RAR-γ-LBD) (Homo sapiens, UniProt P13631).
T2 construct: purchased Invitrogen
T2 sequence (P13631 185-419 limits assumed): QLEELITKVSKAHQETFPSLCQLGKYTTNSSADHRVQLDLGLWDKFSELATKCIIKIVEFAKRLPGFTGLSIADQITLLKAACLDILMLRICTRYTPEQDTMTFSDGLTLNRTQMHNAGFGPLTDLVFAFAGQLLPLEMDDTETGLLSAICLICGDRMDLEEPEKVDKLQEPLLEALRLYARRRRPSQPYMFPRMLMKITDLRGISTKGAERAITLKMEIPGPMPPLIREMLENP
The experiment in a line: LanthaScreen TR-FRET RARγ co-activator (receptor binding) assay. It counts as biochemical. As to conditions: for EC50: estimated EC50, TR-FRET co-activator assay, 4 h incubation, read-out: EC50 (95% confidence range) RARγ; for binding-curve upper asymptote (coactivator recruitment), RARγ: in words, Fig. 6C. Here is the method: as §1, §2, §3

Where [4] appears, read: estimated EC50, TR-FRET co-activator assay, 4 h incubation.

In the case of `CCOCCOc1nc(-c2ccc(C(=O)O)cc2)sc1C` [GZ18], the values for the EC50 in test [1] (setting [4]) and in test [3] were 15.1 nM and 141 nM, respectively. In test [1], the “binding-curve upper asymptote (coactivator recruitment), RARα” value (shortened to “binding-curve upper asymptote … RARα”) was “high curve asymptotes”. Moreover, in test [2], the “proportion of cells expressing differentiation markers SSEA-3, TRA-1–60, A2B5” value was “very little activity”. In test [3], the “binding-curve upper asymptote (coactivator recruitment), RARγ” value is reported as “very low binding-curve upper asymptotes”.
For the compound `CCOC(=O)c1ccc(-c2nc(-c3ccccc3)c(C)s2)cc1` [GZ22], the values for the EC50 in test [1] (setting [4]) and in test [3] were 82 nM and 383 nM, respectively. For the same compound, the “binding-curve upper asymptote … RARα” value in test [1] is on record as “lower asymptotes”. Besides, the “proportion of cells expressing differentiation markers SSEA-3, TRA-1–60, A2B5” value in test [2] is on record as “Intermediate responses”.
Regarding `Cc1sc(-c2ccc(C(=O)O)cc2)nc1-c1ccc2c(c1)C(C)(C)CCC2(C)C` [GZ25], in test [1], the “binding-curve upper asymptote … RARα” value is on record as “high curve asymptotes” and the concentration giving a half-maximal response (EC50) (commonly the concentration needed to bring the measured effect to its halfway point) turned out to be 8.2 nM. In test [2], the “proportion of cells expressing differentiation markers SSEA-3, TRA-1–60, A2B5” value was “most potent, even compared to ATRA”. Also, in test [3], the EC50 is 98.9 nM and the “binding-curve upper asymptote (coactivator recruitment), RARγ” value is given as “high”.
